Measurements from patent publication US8415469B2, “Compounds and methods for kinase modulation, and indications therefor” (Plexxikon Inc., priority 2005, dated 2013).
pIC50: −log10 of the molar value. Like-named read-outs stand apart in the source and are kept apart here.

Key:
Assay type in all cases: biochemical
[1] = biological target: T1, FGFR1 (Homo sapiens, UniProt P11362, C488A/C584S); assay: AlphaScreen kinase assay, FGFR1
T1 construct: P1351.pET N6 BI-PTP FGFR A458-E765-X C488A, C584S; made in house; host or cells: E. coli (PTP1B co-expressed)

[2] = biological target: T2, Pyk2 (Homo sapiens, UniProt Q14289); assay: AlphaScreen kinase assay, Pyk2; conditions: read-out: IC50, activity toward kinase Pyk2
T2 construct: purchased Upstate Biotechnology

[3] = biological target: T3, Jnk1 (Homo sapiens, UniProt P45983); assay: AlphaScreen kinase assay, Jnk1; conditions: read-out: IC50, activity toward kinase Jnk1
T3 construct: purchased Upstate Biotechnology

[4] = biological target: T4, Fms (Homo sapiens, UniProt P07333); assay: AlphaScreen kinase assay, Fms; conditions: read-out: IC50, activity toward kinase Fms
T4 construct: purchased Upstate Biotechnology

[5] = biological target: T5, Jnk3 (Homo sapiens, UniProt P53779); assay: AlphaScreen kinase assay, Jnk3; conditions: read-out: IC50, activity toward kinase Jnk3
T5 construct: purchased Upstate Biotechnology

[6] = biological target: T6, Kit (Homo sapiens, UniProt P10721); assay: AlphaScreen kinase assay, Kit; conditions: read-out: IC50, activity toward kinase Kit
T6 construct: P1332.N6 BI PTP KIT M552-K948-X COD; His6 (N); made in house; host or cells: E. coli (PTP1B co-expressed)

[7] = biological target: MAP4K4 (Homo sapiens, UniProt O95819); assay: AlphaScreen kinase assay, MAP4K4; conditions: read-out: IC50, activity toward kinase MAP4K4
[8] = biological target: T7, c-Raf-1 (Homo sapiens, UniProt P04049); assay: AlphaScreen kinase assay, c-Raf-1; conditions: read-out: IC50, activity toward kinase c-Raf-1
T7 construct: purchased Upstate Biotechnology

[9] = biological target: T8, Src (Homo sapiens, UniProt P12931); assay: AlphaScreen kinase assay, Src; conditions: read-out: IC50, activity toward kinase Src
T8 construct: P1144. pET-N6 BI-PTP SRC V86-L536-X; made in house

[10] = biological target: T9, B-Raf (Homo sapiens, UniProt P15056); assay: AlphaScreen kinase assay, B-Raf; conditions: read-out: IC50, activity toward kinase B-Raf
T9 construct: purchased Upstate Biotechnology

[11] = biological target: T10, B-Raf V600E (Homo sapiens, UniProt P15056, V600E); assay: AlphaScreen kinase assay, B-Raf V600E; conditions: read-out: IC50, activity toward kinase B-Raf V600E
T10 construct: P4254. pFastBacBD-CDC37 BRAF D437-K722-X, V600E; His6 with pFastBac HT leader (TEV site) (N); made in house; host or cells: Sf9 (baculovirus; chaperone CDC37 co-expressed)

[12] = biological target: T11, Fak (Homo sapiens, UniProt Q05397); assay: AlphaScreen kinase assay, Fak; conditions: read-out: IC50, activity toward kinase Fak
T11 construct: P1358.pFastBacHtb FAK S411-Q686-X; His6 with pFastBacHTb leader (TEV site) (N); made in house; host or cells: Sf9 (baculovirus)

[13] = biological target: T12, Jnk2 (Homo sapiens, UniProt P45984); assay: AlphaScreen kinase assay, Jnk2; conditions: read-out: IC50, activity toward kinase Jnk2
T12 construct: purchased Roche Protein Expression Group (Indianapolis, IN)
In short: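 Biotinylated peptide substrate is phosphorylated by kinase; anti-phosphopeptide antibody on acceptor beads and streptavidin donor beads bring emission when substrate is phosphorylated. Inhibition lowers acceptor signal. Compounds from 20 mM DMSO stock tested as 8-point 1:3 serial dilutions.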

[14] = biological target: T13, Flt1 (Homo sapiens, UniProt P17948); assay: AlphaScreen kinase assay, Flt1; conditions: read-out: IC50, activity toward kinase Flt1
T13 construct: P1826.pETN6 BI-PTP FLT1 M799-D1165-X WT; His6 (N); made in house; host or cells: E. coli (PTP1B co-expressed)
T13 sequence (P17948 with tags, fused parts or gaps): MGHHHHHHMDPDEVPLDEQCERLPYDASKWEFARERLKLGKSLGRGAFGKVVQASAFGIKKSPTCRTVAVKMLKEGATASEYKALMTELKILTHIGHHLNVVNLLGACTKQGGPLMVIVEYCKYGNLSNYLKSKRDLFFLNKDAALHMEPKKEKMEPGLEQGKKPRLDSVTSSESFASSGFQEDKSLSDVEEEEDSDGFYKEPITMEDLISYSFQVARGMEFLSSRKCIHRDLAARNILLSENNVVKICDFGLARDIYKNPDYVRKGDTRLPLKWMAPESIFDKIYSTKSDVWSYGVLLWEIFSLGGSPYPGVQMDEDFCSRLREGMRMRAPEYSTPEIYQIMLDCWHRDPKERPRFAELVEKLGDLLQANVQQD

[15] = read-out: IC50, activity toward kinase FGFR

T10 sequence (P15056 with tags, fused parts or gaps V600E): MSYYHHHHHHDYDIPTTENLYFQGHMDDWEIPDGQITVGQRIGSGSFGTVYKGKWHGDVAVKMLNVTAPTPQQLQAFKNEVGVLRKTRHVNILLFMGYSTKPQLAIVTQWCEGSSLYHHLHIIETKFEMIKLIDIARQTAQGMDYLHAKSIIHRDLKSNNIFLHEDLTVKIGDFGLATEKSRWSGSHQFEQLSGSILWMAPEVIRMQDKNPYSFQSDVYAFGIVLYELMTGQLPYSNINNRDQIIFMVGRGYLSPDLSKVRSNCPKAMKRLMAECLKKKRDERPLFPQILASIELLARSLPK
T1 sequence (P11362 458-765 C488A/C584S): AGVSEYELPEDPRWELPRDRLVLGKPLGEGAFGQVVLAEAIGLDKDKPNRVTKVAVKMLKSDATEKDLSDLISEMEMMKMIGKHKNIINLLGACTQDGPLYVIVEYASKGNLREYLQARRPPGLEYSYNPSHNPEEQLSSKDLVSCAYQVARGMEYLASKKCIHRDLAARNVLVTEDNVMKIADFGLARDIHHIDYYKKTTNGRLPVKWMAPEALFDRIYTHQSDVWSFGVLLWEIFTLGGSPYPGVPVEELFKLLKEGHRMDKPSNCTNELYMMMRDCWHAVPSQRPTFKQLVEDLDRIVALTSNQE
T4 sequence (P07333 20-972): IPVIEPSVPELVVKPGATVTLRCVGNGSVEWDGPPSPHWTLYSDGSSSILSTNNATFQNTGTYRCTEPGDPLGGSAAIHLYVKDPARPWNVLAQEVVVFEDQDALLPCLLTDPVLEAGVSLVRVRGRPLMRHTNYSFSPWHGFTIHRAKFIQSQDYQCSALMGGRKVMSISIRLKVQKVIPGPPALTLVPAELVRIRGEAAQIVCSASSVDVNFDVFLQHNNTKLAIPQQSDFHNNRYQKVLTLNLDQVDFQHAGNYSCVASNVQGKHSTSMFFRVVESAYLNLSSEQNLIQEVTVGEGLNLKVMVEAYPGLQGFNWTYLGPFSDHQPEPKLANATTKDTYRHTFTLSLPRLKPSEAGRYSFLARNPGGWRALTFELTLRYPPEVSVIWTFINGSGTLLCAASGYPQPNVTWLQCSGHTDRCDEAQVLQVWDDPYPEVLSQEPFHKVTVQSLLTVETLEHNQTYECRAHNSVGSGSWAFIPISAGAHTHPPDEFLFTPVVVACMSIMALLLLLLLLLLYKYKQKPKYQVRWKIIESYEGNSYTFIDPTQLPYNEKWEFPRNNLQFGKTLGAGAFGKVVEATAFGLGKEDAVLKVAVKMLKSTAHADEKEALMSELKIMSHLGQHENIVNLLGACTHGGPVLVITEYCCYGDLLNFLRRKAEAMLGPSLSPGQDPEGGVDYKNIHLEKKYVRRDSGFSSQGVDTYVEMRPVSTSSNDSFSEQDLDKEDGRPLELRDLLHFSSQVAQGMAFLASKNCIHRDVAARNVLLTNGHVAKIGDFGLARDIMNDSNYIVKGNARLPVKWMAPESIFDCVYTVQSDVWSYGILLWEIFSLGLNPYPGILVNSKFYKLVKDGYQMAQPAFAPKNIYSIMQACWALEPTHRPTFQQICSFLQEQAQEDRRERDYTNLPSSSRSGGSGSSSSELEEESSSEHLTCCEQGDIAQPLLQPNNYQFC
T5 sequence (P53779 whole entry): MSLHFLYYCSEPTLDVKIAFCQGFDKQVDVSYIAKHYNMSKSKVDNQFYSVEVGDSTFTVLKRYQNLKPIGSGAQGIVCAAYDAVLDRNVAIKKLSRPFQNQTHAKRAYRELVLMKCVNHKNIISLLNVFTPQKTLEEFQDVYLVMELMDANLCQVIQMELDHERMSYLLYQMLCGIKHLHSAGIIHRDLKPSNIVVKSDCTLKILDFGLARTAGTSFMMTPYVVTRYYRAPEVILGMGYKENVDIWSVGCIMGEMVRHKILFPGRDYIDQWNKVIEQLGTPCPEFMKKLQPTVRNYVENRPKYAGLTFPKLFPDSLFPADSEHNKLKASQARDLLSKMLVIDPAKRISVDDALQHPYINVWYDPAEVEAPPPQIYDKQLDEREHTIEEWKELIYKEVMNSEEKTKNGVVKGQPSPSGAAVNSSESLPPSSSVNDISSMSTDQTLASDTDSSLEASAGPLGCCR
T7 sequence (P04049 whole entry): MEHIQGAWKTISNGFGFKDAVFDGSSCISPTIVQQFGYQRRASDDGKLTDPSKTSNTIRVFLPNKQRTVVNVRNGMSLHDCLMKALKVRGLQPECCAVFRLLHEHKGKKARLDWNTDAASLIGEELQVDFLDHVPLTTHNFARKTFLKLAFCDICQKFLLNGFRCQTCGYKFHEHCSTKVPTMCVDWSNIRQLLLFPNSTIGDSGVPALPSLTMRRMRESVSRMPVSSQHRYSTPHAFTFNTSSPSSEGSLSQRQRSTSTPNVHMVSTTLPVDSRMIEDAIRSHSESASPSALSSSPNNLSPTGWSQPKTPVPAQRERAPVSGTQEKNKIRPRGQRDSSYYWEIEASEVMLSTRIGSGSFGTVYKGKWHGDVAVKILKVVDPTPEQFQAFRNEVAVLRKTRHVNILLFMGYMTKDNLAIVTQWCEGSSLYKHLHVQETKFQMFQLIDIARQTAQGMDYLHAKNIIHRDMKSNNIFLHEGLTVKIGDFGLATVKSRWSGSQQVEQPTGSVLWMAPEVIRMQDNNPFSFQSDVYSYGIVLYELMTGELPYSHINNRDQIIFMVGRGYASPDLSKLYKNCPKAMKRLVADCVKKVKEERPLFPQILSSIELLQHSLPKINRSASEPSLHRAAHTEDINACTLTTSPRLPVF
T9 sequence (P15056 whole entry): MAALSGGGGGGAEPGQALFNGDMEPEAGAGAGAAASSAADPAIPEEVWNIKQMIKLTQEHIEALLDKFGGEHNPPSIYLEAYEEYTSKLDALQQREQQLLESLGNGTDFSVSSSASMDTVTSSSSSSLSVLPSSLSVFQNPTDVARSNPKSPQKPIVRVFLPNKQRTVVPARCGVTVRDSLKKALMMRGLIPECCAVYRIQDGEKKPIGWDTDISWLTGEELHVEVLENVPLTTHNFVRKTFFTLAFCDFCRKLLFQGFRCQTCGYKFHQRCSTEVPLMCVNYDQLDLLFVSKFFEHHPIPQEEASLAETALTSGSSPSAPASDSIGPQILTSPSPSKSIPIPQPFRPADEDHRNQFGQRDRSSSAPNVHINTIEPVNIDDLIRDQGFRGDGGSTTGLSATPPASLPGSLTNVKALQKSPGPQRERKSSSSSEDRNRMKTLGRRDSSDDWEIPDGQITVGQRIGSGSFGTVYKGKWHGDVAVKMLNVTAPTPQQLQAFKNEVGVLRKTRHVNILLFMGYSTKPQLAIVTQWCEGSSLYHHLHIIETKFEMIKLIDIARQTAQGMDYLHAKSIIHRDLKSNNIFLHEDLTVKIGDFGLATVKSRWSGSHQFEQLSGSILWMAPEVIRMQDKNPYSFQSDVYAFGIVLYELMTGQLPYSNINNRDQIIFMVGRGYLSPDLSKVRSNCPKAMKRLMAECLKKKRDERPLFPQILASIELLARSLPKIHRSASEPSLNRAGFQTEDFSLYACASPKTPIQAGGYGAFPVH
T6 sequence (P10721 with tags, fused parts or gaps): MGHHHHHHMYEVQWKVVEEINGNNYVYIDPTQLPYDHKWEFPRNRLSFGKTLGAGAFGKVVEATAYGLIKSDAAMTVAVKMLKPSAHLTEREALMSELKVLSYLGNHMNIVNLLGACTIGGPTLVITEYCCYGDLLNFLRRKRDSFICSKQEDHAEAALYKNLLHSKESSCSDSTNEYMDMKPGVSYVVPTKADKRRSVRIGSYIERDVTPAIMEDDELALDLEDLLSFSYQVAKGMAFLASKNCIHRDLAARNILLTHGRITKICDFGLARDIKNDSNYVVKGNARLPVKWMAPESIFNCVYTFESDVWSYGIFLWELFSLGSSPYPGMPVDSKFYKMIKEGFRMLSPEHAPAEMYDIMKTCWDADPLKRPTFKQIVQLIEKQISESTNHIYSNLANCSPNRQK
T11 sequence (Q05397 411-686): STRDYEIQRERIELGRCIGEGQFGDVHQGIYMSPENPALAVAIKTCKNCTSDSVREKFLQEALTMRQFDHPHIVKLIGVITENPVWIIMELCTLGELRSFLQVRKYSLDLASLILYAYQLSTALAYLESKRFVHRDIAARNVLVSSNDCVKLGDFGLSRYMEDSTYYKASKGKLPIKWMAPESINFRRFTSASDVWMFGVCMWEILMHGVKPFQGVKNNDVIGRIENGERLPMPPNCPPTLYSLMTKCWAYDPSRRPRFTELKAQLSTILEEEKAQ
T8 sequence (P12931 with tags, fused parts or gaps): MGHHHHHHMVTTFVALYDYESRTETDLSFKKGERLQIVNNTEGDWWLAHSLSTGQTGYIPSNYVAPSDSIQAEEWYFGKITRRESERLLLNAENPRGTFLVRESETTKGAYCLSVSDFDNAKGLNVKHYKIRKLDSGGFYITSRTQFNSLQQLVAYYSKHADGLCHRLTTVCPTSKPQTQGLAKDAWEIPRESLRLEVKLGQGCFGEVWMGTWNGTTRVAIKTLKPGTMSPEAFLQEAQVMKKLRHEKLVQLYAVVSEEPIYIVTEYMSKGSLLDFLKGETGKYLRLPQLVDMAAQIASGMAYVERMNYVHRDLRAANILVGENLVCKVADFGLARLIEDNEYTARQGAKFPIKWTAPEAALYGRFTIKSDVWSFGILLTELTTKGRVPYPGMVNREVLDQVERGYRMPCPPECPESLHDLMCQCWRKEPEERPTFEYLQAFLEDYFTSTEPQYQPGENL

| pIC50 [3] | pIC50 [4] | pIC50 [5] | pIC50 [6] | pIC50 [7] | pIC50 [8] | pIC50 [9] | pIC50 [1, 15] | pIC50 [10] | pIC50 [11] | pIC50 [12] | pIC50 [13] | pIC50 [14] | SMILES | pIC50 [1] | pIC50 [2] |
| --- | --- | --- | --- | --- | --- | --- | --- | --- | --- | --- | --- | --- | --- | --- | --- |
| ≥ 5.00 | ≥ 5.00 | ≥ 5.00 | ≥ 5.00 | ≥ 5.00 | ≥ 5.00 | ≥ 5.00 | ≥ 5.00 | ≥ 5.00 | ≥ 5.00 | ≥ 5.00 |  |  | CC(C)S(=O)(=O)Nc1ccc(F)c(Cc2c[nH]c3ncc(-c4cccnc4)cc23)c1F [Compound P-0851] |  | ≥ 5.00 |
|  |  |  |  | ≥ 5.00 |  |  |  |  |  | ≥ 5.00 |  |  | Cc1[nH]c2ncccc2c1-c1cccc(F)c1 [Compound P-0986] |  |  |
| ≥ 5.00 | ≥ 5.00 | ≥ 5.00 | ≥ 5.00 | ≥ 5.00 | ≥ 5.00 | ≥ 5.00 | ≥ 5.00 | ≥ 5.00 | ≥ 5.00 | ≥ 5.00 | ≥ 5.00 |  | CCCS(=O)(=O)Nc1ccc(F)c(C(=O)c2c[nH]c3ncc(OCCOC)cc23)c1F [Compound P-1253, Propane-1-sulfonic acid {2,4-difluoro-3-[5-(2-methoxy-ethoxy)-1H-pyrrolo[2,3-b]pyridine-3-carbonyl]-phenyl}-amide] |  |  |
| ≥ 5.00 | ≥ 5.00 | ≥ 5.00 | ≥ 5.00 | ≥ 5.00 | ≥ 5.00 |  | ≥ 5.00 | ≥ 5.00 | ≥ 5.00 | ≥ 5.00 |  | ≥ 5.00 | CCCC(=O)Nc1ccc(F)c(C(=O)c2c[nH]c3ncc(-c4cccnc4)cc23)c1F [Compound P-1279] |  |  |
| ≥ 5.00 | ≥ 5.00 | ≥ 5.00 | ≥ 5.00 | ≥ 5.00 | ≥ 5.00 | ≥ 5.00 | ≥ 5.00 | ≥ 5.00 | ≥ 5.00 | ≥ 5.00 |  | ≥ 5.00 | CCC(C)NC(=O)Nc1ccc(F)c(C(=O)c2c[nH]c3ncc(-c4cccnc4)cc23)c1F (stereo not drawn) [Compound P-1289, 1-sec-Butyl-3-[2,4-difluoro-3-(5-pyridin-3-yl-1H-pyrrolo[2,3-b]pyridine-3-carbonyl)-phenyl]-urea] |  |  |
|  |  |  | ≥ 5.00 | ≥ 5.00 |  | ≥ 5.00 | ≥ 5.00 | ≥ 5.00 | ≥ 5.00 | ≥ 5.00 |  | ≥ 5.00 | NC(=O)c1cccc(-c2cnc3[nH]cc(C(=O)c4ccccc4OCc4ccccc4)c3c2)c1 [Compound P-1383] |  |  |
|  | ≥ 5.00 |  | ≥ 5.00 | ≥ 5.00 |  |  | ≥ 5.00 |  | ≥ 5.00 | ≥ 5.00 |  | ≥ 5.00 | COc1cc(OC)cc(C(=O)c2c[nH]c3ncc(-c4cccnc4)cc23)c1 [Compound P-1411, (3,5-Dimethoxy-phenyl)-(5-pyridin-3-yl-1H-pyrrolo[2,3-b]pyridin-3-yl)-methanone] |  |  |
|  | ≥ 5.00 |  | ≥ 5.00 | ≥ 5.00 |  |  | ≥ 5.00 |  |  | ≥ 5.00 |  |  | O=C(c1c(F)cccc1F)c1c[nH]c2ncccc12 [Compound P-1685] |  |  |

| SMILES | pIC50 [3] | pIC50 [4] | pIC50 [5] | pIC50 [6] | pIC50 [7] | pIC50 [8] | pIC50 [9] | pIC50 [1, 15] | pIC50 [10] | pIC50 [11] | pIC50 [12] | pIC50 [13] | pIC50 [14] | pIC50 [1] | pIC50 [2] |
| --- | --- | --- | --- | --- | --- | --- | --- | --- | --- | --- | --- | --- | --- | --- | --- |
| CCCS(=O)(=O)Nc1ccc(Cl)c(C(=O)c2c[nH]c3ncc(-c4cccnc4)cc23)c1F [Compound P-0753, Propane-1-sulfonic acid [4-chloro-2-fluoro-3-(5-pyridin-3-yl-1H-pyrrolo[2,3-b]pyridine-3-carbonyl)-phenyl]-amide] | ≥ 5.00 | ≥ 5.00 | ≥ 5.00 | ≥ 5.00 | ≥ 5.00 | ≥ 5.00 | ≥ 5.00 |  |  |  |  |  |  | ≥ 5.00 | ≥ 5.00 |
